Laboratory results as given in PubChem BioAssay (NCI).
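Each compound was tested at five concentrations against cells in 96-well plates for 48 hours. GI50 = concentration required for 50% inhibition of growth. TGI marks complete inhibition of growth.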

Legend:
Experiment in all cases: DTP human tumour cell line panel, 48 h
HL-60(TB) leukemia = system: HL-60(TB) leukemia
HS 578T breast = system: HS 578T breast
NCI-H522 lung = system: NCI-H522 lung
NCI-H460 lung = system: NCI-H460 lung
MDA-MB-435 = system: MDA-MB-435
NCI-H23 lung = system: NCI-H23 lung
SN12C renal = system: SN12C renal
A498 renal = system: A498 renal
HT29 colon = system: HT29 colon
M14 melanoma = system: M14 melanoma

Row | SMILES | GI50 (HL-60(TB) leukemia) | TGI (HL-60(TB) leukemia) | GI50 (HS 578T breast) | TGI (HS 578T breast) | GI50 (NCI-H522 lung) | TGI (NCI-H522 lung) | GI50 (NCI-H460 lung) | TGI (NCI-H460 lung) | GI50 (MDA-MB-435) | TGI (MDA-MB-435) | GI50 (NCI-H23 lung) | TGI (NCI-H23 lung) | GI50 (SN12C renal) | TGI (SN12C renal) | GI50 (A498 renal) | TGI (A498 renal) | GI50 (HT29 colon) | TGI (HT29 colon) | GI50 (M14 melanoma) | TGI (M14 melanoma)
1 | CN(C)c1ncnc2c1ccn2C1OC(CO)C(O)C1O (stereo unspecified) | 0.316 µM | 1.89 µM | 2.71 µM | 40.2 µM | > 100 µM | > 100 µM | 4.19 µM | > 100 µM | 2.55 µM | > 29.1 µM | 5.45 µM | > 100 µM | 2.62 µM | > 100 µM | 3.49 µM | > 100 µM | 1.47 µM | > 100 µM | 16.1 µM | > 100 µM
2 | CC(=O)n1c(-c2ccc(Cl)c(Cl)c2)cn(-c2ccc(Cl)cc2)c1=O | 34.8 µM | > 100 µM | 15.5 µM | 36.5 µM | 19.3 µM | 53.6 µM | 30.8 µM | > 100 µM | 84.1 µM | > 100 µM | – | – | 31.8 µM | > 100 µM | 20.9 µM | 47 µM | 57.7 µM | > 100 µM | 27.6 µM | > 100 µM
3 | CCc1nc(N)nc(N)c1C#CC(C)c1cc(-c2ccnc(C)c2)c2oc(C)nc2c1 (stereo unspecified) | < 0.01 µM | 2.22 µM | 1.5 µM | 13.9 µM | 0.0222 µM | 9.66 µM | < 0.01 µM | 4.26 µM | < 0.01 µM | 12.3 µM | < 0.01 µM | 5.31 µM | < 0.0145 µM | 11.4 µM | 0.117 µM | 4.89 µM | < 0.01 µM | 7.74 µM | < 0.01 µM | 5.69 µM
4 | C=C(C)C(=O)O[C@H]1CC2=CC(CC(C)=C[C@H]3OC(=O)C(=C)C13)OC2=O (stereo partly specified) | – | 11.8 µM | – | > 100 µM | – | 17 µM | – | > 100 µM | – | > 100 µM | – | > 100 µM | – | 51.4 µM | – | 76 µM | – | 43.2 µM | – | > 100 µM
5 | Cc1ccc(-c2c3c(N)c4c(nc3nc3c2c(C)nn3-c2ccccc2)CCC4)cc1 | 2.07 µM | 4.67 µM | 5.03 µM | 15.6 µM | 18.2 µM | 40.3 µM | 2.02 µM | 4.44 µM | 17.1 µM | 34.2 µM | 17.5 µM | 40 µM | 1.83 µM | 3.74 µM | 16.1 µM | 32.6 µM | 5.07 µM | 10.9 µM | 6.25 µM | 20.1 µM
6 | CC(C)=CCc1cc(C2COc3cc4c(c(O)c3C2=O)C=CC(C)(C)O4)c(O)cc1O (stereo unspecified) | – | 31.1 µM | – | 39.9 µM | – | 25.9 µM | – | 27.4 µM | – | 33.4 µM | – | 32.6 µM | – | 26.3 µM | – | 33.2 µM | – | 31.6 µM | – | 26.2 µM
7 | c1ccc(/C(=N\Nc2ccc3ccccc3n2)c2ccccn2)cc1 | 0.235 µM | 0.775 µM | 4.42 µM | 41.6 µM | 0.412 µM | 21.7 µM | 0.414 µM | 11.3 µM | 0.66 µM | 16.7 µM | 0.983 µM | 22.8 µM | 0.507 µM | 25.6 µM | 2.92 µM | 80.4 µM | 0.608 µM | 26.1 µM | 0.484 µM | 4.44 µM
8 | CCc1c2c(nc3ccc(OCc4ccc(B5OC(C)(C)C(C)(C)O5)cc4)cc13)-c1cc3c(c(=O)n1C2)COC(=O)[C@]3(O)CC | 0.0291 µM | – | 1.11 µM | > 100 µM | 0.0204 µM | > 100 µM | 0.0125 µM | 1.24 µM | 0.101 µM | > 100 µM | 0.0248 µM | 0.219 µM | < 0.01 µM | > 100 µM | 0.0406 µM | 0.376 µM | 0.115 µM | > 100 µM | 0.0141 µM | –
9 | O=C1COCCN1c1ccc(NCc2cn(C(=O)c3ccc(Cl)cc3)c3ccccc23)cc1 | 4.97 µM | 20.9 µM | 3.86 µM | 39.1 µM | 5.12 µM | 35.9 µM | 0.268 µM | 12.7 µM | 16.4 µM | 50.1 µM | 3.79 µM | 52.1 µM | 4.96 µM | 69.3 µM | 0.0306 µM | 0.142 µM | 3.79 µM | > 100 µM | 7.92 µM | > 100 µM
10 | O=C1NC(SCc2ccc(F)cc2)=N/C1=C/c1cccc(OCc2ccc(Cl)cc2)c1 | > 100 µM | > 100 µM | 9.36 µM | > 100 µM | 57.3 µM | > 100 µM | 4.39 µM | 30.3 µM | > 100 µM | > 100 µM | 16.9 µM | > 100 µM | 4.52 µM | > 100 µM | 3.53 µM | 26.2 µM | > 100 µM | > 100 µM | 47.4 µM | > 100 µM
11 | CCC(=O)c1c(C(F)(F)F)n([O-])c2ccccc2[n+]1=O | 3.03 µM | > 100 µM | 3.17 µM | 30.5 µM | 2.36 µM | > 21.4 µM | 0.695 µM | 2.6 µM | 2.41 µM | 10.4 µM | 1.1 µM | 4.37 µM | 1.98 µM | 7.29 µM | 2.67 µM | 9.03 µM | 1.41 µM | 11 µM | 1.7 µM | 6.19 µM
12 | CNc1ncc2cc(Oc3ccc(F)cc3F)c(=O)n(C)c2n1 | > 25 µM | > 25 µM | > 25 µM | > 25 µM | > 25 µM | > 25 µM | > 25 µM | > 25 µM | > 25 µM | > 25 µM | > 25 µM | > 25 µM | > 25 µM | > 25 µM | 11.9 µM | > 25 µM | > 25 µM | > 25 µM | > 25 µM | > 25 µM
13 | O=C1OC(OC/C(Br)=C(/Br)COC2OC(=O)C(Cl)=C2Cl)C(Cl)=C1Cl (stereo unspecified) | – | 4.33 µM | – | 64.7 µM | – | 4.53 µM | – | 39.4 µM | – | 24.2 µM | – | 22.5 µM | – | 22.6 µM | – | 38 µM | – | 28.4 µM | – | 17.3 µM
